Reference: ChEMBL document CHEMBL1697731, “Cheminformatics analysis of assertions mined from literature that describe drug-induced liver injury in different species” (Chem Res Toxicol, 2010)

Experiments:
Hepatotoxicity [1] = assay: Literature-mined compound from Fourches et al multi-species drug-induced liver injury (DILI) dataset, effect in non-rodents
Hepatotoxicity [2] = assay: Literature-mined compound from Fourches et al multi-species drug-induced liver injury (DILI) dataset, effect in rodents; details: rodentia
Hepatotoxicity [3] = assay: Literature-mined compound from Fourches et al multi-species drug-induced liver injury (DILI) dataset, effect in humans; details: human

Structure (SMILES)	Hepatotoxicity (Hepatotoxicity [1])	Hepatotoxicity (Hepatotoxicity [2])	Hepatotoxicity (Hepatotoxicity [3])	Hepatotoxicity (Hepatotoxicity [1]; Liver)	Hepatotoxicity (Hepatotoxicity [2]; Liver)	Hepatotoxicity (Hepatotoxicity [3]; Liver)
CC(C)(C)C(=O)OCOP(=O)(COCCn1cnc2c(N)ncnc21)OCOC(=O)C(C)(C)C [ADEFOVIR DIPIVOXIL]	no drug-induced liver injury reported	drug-induced liver injury reported	drug-induced liver injury reported			
CC1(C)CCC2=C(O1)c1ccccc1C(=O)C2=O [LAPACHONE]	no drug-induced liver injury reported	no drug-induced liver injury reported	drug-induced liver injury reported			
COCCCC/C(=N\OCCN)c1ccc(C(F)(F)F)cc1 [FLUVOXAMINE]	no drug-induced liver injury reported	drug-induced liver injury reported	drug-induced liver injury reported			
Cc1ccc(S(=O)(=O)NC(=O)NN2CC3CCCC3C2)cc1 (stereo not given) [GLICLAZIDE]	no drug-induced liver injury reported	no drug-induced liver injury reported	drug-induced liver injury reported			
CCN(CCCc1ccccc1)CCCc1ccccc1 [ALVERINE]	no drug-induced liver injury reported	no drug-induced liver injury reported	drug-induced liver injury reported			
CC(C)CN(C[C@@H](O)[C@H](Cc1ccccc1)NC(=O)O[C@H]1CCOC1)S(=O)(=O)c1ccc(N)cc1	no drug-induced liver injury reported	no drug-induced liver injury reported	drug-induced liver injury reported			
COc1cc([C@@H]2c3cc4c(cc3[C@H](O)[C@H]3COC(=O)[C@H]23)OCO4)cc(OC)c1OC [PODOFILOX]	no drug-induced liver injury reported	drug-induced liver injury reported	no drug-induced liver injury reported			
COc1ccc2cc([C@H](C)C(=O)O)ccc2c1 [NAPROXEN]				no drug-induced liver injury reported	drug-induced liver injury reported	drug-induced liver injury reported
O=C(O)CC(O)(CC(=O)O)C(=O)O [CITRIC ACID]	no drug-induced liver injury reported	drug-induced liver injury reported	no drug-induced liver injury reported			
O=C(O)c1cc(=O)[nH]c(=O)[nH]1 [OROTIC ACID]	no drug-induced liver injury reported	drug-induced liver injury reported	no drug-induced liver injury reported			
CC(=O)Oc1cc(C(C)C)c(OCCN(C)C)cc1C [MOXISYLYTE]	no drug-induced liver injury reported	no drug-induced liver injury reported	drug-induced liver injury reported			
COc1ccc2c(c1OC)C(=O)O[C@@H]2[C@H]1c2c(cc3c(c2OC)OCO3)CCN1C [NOSCAPINE]	no drug-induced liver injury reported	drug-induced liver injury reported	no drug-induced liver injury reported			
Cc1cnc(NC(=O)C2=C(O)c3ccccc3S(=O)(=O)N2C)s1 [MELOXICAM]	no drug-induced liver injury reported	no drug-induced liver injury reported	drug-induced liver injury reported			
CC(C)C(=O)Nc1ccc([N+](=O)[O-])c(C(F)(F)F)c1 [FLUTAMIDE]	no drug-induced liver injury reported	drug-induced liver injury reported	drug-induced liver injury reported			
CC#C[C@]1(O)CC[C@H]2[C@@H]3CCC4=CC(=O)CCC4=C3[C@@H](c3ccc(N(C)C)cc3)C[C@@]21C [MIFEPRISTONE]	no drug-induced liver injury reported	drug-induced liver injury reported	no drug-induced liver injury reported			
